The source of these data is patent publication US20240344241A1, “PROTEINACEOUS MOLECULES AND USES THEREFOR” (THE UNIVERSITY OF QUEENSLAND, priority 2021, published 2024).

One data set has as its target T1, bovine trypsin (Bos taurus, UniProt P00760).
T1 sequence (P00760 24-246): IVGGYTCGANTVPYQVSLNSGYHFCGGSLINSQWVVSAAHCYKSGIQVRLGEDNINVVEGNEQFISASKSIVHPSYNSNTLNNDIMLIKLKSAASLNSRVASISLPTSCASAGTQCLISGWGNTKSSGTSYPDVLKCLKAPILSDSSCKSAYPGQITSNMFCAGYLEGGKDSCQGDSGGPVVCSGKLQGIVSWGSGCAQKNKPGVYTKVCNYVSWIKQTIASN
Put plainly: Surface plasmon resonance binding to trypsin.

The next data set has as its target T2, Human trypsin (Homo sapiens, UniProt P07477).
T2 construct: purchased Sigma-Aldrich; host or cells: purified from human tissue
The experiment in a line: Trypsin competitive inhibition assay. The following applies: Table 10; read-out: Ki Trypsin. In kind it is biochemical. The essentials: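 Assays run three times in duplicate at pH 8.0 (Tris-HCl, NaCl, CaCl2, Triton X-100). Rates of pNA or MCA release after enzyme–inhibitor equilibration at room temperature were fitted by non-linear regression to the Morrison equation for Ki.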

The target of another data set is T3, Human FXa (Homo sapiens, UniProt P00742).
T3 construct: Human β-FXIIa was obtained from Molecular Innovations, together with human FXa, human FXIa, human α-thrombin, and human plasma kallikrein; purchased Molecular Innovations; host or cells: purified from human plasma
T3 sequence (P00742 235-488 limits assumed): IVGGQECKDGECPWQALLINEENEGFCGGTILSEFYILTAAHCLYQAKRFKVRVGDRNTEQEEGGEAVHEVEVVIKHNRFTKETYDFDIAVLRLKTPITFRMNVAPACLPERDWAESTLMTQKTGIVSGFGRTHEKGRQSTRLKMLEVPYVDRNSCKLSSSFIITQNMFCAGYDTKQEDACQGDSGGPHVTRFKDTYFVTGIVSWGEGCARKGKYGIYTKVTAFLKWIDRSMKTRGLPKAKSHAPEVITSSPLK
T3 sequence (P00742 41-179 partner limits assumed): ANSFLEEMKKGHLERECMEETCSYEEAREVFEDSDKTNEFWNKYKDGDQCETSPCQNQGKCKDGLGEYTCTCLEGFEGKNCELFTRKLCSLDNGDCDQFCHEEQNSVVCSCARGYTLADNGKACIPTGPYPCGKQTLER
Put plainly: FXa inhibition assay. It is filed as biochemical. The method, then:
(§1) The activity of acyclic and cyclic MCoFx1-5 and analogues thereof was assessed in competitive inhibition assays, as previously described in Swedberg et al. (2016) J Med Chem, 59: 7287-7292. Human β-FXIIa was obtained from Molecular Innovations, together with human FXa, human FXIa, human α-thrombin, and human plasma kallikrein. Human cationic trypsin and human plasmin were obtained from Sigma-Aldrich, and recombinant human matriptase was sourced from R&D Systems. Recombinant human urokinase (uPA) and recombinant human tissue plasminogen activator (tPA) were expressed in Expi293 cells, as previously described in Li et al. (2019) Chembiochem, 20: 46-50. FXIIa inhibition assays were performed in clear, low-binding 96-well plates using 250 μL (final volume) of assay buffer (0.1 M Tris-HCl pH 8.0, 0.1 M NaCl, 10 mM CaCl2 and 0.005% Triton X-100). Inhibitors were serially diluted and incubated with 10 nM FXIIa at room temperature to reach equilibrium. After adding 100 μM Ac-QRFR-pNA substrate (KM=162 μM), enzymatic activity was measured by monitoring release of the pNA moiety using a TECAN infinite M1000 Pro plate reader (A=405 nm, reading interval, 10 s; assay time course, 7 min). Assays were conducted in three times in duplicate. Substrate kinetic constants (Michaelis-Menten) and inhibition constants (Morrison K) were determined by non-linear regression using Prism 7 (GraphPad). Selectivity assays with off-target proteases were performed in a similar way, except that different concentrations of enzyme and substrate were used, as indicated in Table 16. For assays using a fluorescent substrate (peptide-4-methylcoumaryl-7-amide, MCA), black low-binding 96-well plates were used and activity was measured using a TECAN infinite M1000 pro plate reader (λex 360 nm, λem 460 nm, reading interval, 30 s; assay time course, 5-30 min).

The next data set addresses T4, Human plasma kallikrein (Homo sapiens, UniProt P03952).
T4 construct: Human β-FXIIa was obtained from Molecular Innovations, together with human FXa, human FXIa, human α-thrombin, and human plasma kallikrein; purchased Molecular Innovations; host or cells: purified from human plasma
The experiment in a line: Plasma kallikrein inhibition assay. It is filed as biochemical. The method, then:
as §1

Another data set has as its target T5, Rec. human uPA (Homo sapiens, UniProt P00749).
T5 construct: made in house; host or cells: Expi293 cells
The experiment in a line: uPA inhibition assay. In kind it is biochemical. The procedure: as §1

Another data set concerns the target T6, Rec. human tPA (Homo sapiens, UniProt P00750).
T6 construct: made in house; host or cells: Expi293 cells
Put plainly: tPA inhibition assay. In kind it is biochemical. The method, then: as §1

The subject of data set [1] is clotting via the intrinsic pathway. The experiment in a line: Activated partial thromboplastin time (aPTT) assay in human plasma. In kind it is biochemical. From the text: (§2) Citrated, platelet-poor plasma samples from healthy adults were collected, prepared, and stored using previously established collection protocols, such as in Zdenek et al. (2019) Toxicol in Vitro, 58: 97-109.
(§3) Standard coagulation assays were used to determine the effect of the inhibitors on the clotting time of human plasma. Activated partial thromboplastin time (aPTT) uses a Kaolin reagent (clay) to activate the intrinsic/contact pathway of the coagulation cascade, whereas prothrombin time (PT) uses Neoplastine (lyophilized thromboplastin prepared from rabbit cerebral tissue) to activate the extrinsic/tissue-factor pathway of the coagulation cascade. A minor adjustment was made to both tests (addition of 25 μL inhibitor or buffer; refer to Table 17) to accommodate the addition of an inhibitor without changing the total volume (and therefore relative ratios of additives) of the assay. Concentrations of inhibitor are reported as the concentration at the point of incubation in the assay, i.e. not taking into account the addition of the start reagent (calcium for aPTT, or Neoplastine for PT).
(§4) Clotting time (seconds) of plasma was automatically measured using a STA-R Max® analyzer (Stago, Asnieres sur Seine, France). Measurements were conducted using a viscosity-based (mechanical) detection system, whereby opposing magnets oscillate a small metal spherical pellet inside the test cuvette (250 μL total volume) until a clot is formed. Dilution of the inhibitor in Owren-Koller (OK) buffer for dose-response curves was performed automatically by the machine. Reagents were kept at 15-19° C. in the machine during experimentation and otherwise stored at 4° C. All tests were performed in triplicate.

The subject of data set [2] is clotting via the extrinsic pathway. Put plainly: Prothrombin time (PT) assay in human plasma. It is filed as biochemical. The following applies: at 10 μM.
Excerpt: as §2, §3, §4

The test system of data set [3] is human umbilical vein endothelial cells (HUVECs).
Procedure: HUVECs were cultured in complete EGM™-2 medium until 80% confluence under 5% CO2 at 37° C. before being seeded onto a 96-well microplate at 5,000 cells/well. Cells were grown for 24 h prior to the assay. […] Peptides were diluted tenfold with serum-free EGM™-2 medium and incubated with HUVECs in triplicate. After 24 h incubation, peptide solutions were replaced with fresh complete EGM™-2 medium before the addition of 0.05% resazurin solution (Sigma-Aldrich). Cells were incubated for another 8 h and the absorbance of the plate was measured on a microplate reader at 540 and 620 nm. H2O and 1% Triton-X were used as control for 100 and 0% viability, separately.

Bridge positions count the residues as written; N and C are the ends. Peptide text beside a SMILES is read from it.

T4 sequence (P03952 391-638 limits assumed): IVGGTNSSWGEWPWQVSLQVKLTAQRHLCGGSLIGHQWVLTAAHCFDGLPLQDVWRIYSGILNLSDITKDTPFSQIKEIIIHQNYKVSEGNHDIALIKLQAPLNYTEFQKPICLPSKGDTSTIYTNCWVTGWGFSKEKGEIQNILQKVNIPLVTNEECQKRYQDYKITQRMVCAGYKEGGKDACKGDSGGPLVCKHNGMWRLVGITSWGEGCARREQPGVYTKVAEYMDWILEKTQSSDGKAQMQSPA
T4 sequence (P03952 20-390 partner limits assumed): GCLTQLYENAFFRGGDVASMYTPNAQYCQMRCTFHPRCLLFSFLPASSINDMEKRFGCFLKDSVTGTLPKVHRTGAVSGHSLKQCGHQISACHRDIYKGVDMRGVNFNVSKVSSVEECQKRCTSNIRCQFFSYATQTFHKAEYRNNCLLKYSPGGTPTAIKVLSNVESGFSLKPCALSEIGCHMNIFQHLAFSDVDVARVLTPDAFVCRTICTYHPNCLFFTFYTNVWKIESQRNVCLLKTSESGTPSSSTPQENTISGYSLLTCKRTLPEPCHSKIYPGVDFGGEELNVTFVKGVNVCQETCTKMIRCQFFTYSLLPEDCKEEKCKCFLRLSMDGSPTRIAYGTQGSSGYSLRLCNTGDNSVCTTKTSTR
T6 sequence (P00750 36-562): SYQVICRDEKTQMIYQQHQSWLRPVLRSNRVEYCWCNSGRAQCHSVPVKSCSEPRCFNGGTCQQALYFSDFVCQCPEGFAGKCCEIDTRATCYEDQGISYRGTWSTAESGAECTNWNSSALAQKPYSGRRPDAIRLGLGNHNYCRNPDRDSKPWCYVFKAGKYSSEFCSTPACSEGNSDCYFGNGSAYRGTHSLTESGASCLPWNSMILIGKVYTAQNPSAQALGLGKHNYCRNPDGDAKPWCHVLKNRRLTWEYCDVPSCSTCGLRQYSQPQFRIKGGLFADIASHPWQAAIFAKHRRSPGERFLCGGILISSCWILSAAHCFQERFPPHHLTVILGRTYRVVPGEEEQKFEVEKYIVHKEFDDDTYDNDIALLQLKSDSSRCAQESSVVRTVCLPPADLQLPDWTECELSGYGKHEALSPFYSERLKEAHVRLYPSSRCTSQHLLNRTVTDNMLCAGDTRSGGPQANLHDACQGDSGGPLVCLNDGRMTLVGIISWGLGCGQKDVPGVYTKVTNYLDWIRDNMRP

Take `CC[C@H](C)[C@@H]1NC(=O)CNC(=O)CNC(=O)[C@H](CC(=O)O)NC(=O)[C@H](Cc2ccc(O)cc2)NC(=O)CNC(=O)[C@H](CO)NC(=O)CNC(=O)[C@@H]2CSSC[C@@H]3NC(=O)[C@H](CC(=O)O)NC(=O)[C@H](CO)NC(=O)[C@H](CC(=O)O)NC(=O)[C@H](CCCNC(=N)N)NC(=O)[C@H](CCCNC(=N)N)NC(=O)[C@@H]4CSSC[C@H](NC(=O)[C@H]([C@@H](C)CC)NC(=O)[C@H](CSSC[C@H](NC1=O)C(=O)N1CCC[C@H]1C(=O)N[C@@H](CCCNC(=N)N)C(=O)N[C@@H]([C@@H](C)CC)C(=O)NCC(=O)N[C@@H](CCCNC(=N)N)C(=O)N[C@@H](CC(C)C)C(=O)N4)NC(=O)[C@H](C)NC(=O)CNC(=O)[C@@H]1CCCN1C3=O)C(=O)N[C@@H](CCCNC(=N)N)C(=O)N[C@@H](C)C(=O)N[C@@H]([C@@H](C)O)C(=O)N[C@@H](CCCNC(=N)N)C(=O)N[C@@H](Cc1ccccc1)C(=O)N2` [MCoFx1 cyclic] (cyclo(ACICRATRFCGSGYDGGICPRIGRLCRRDSDCPG); disulfide 2-19, 4-26, 10-32): the dissociation constant Kd at bovine trypsin (Table 8, cyclic form, read-out: KD (nM) Trypsin Cyclic) was determined as 31.5 nM. Moreover, on bovine trypsin (ratio of KD values), the “fold lower affinity for trypsin compared with MCoTI-II” value is given as 300 fold. The Ki at Human trypsin was determined as 1.11 µM. Also, the inhibition at 5 µM at Human FXa (at 5 μM, read-out: percent inhibition FXa) was determined as 0%; at Human plasma kallikrein (at 5 μM, read-out: percent inhibition Plasma kallikrein), 0%; on Rec. human uPA (at 5 μM, read-out: percent inhibition uPA), 0%; at Rec. human tPA (at 5 μM, read-out: percent inhibition tPA), 0%. Also, the IC50 at Human FXa (read-out: IC50 FXa), at Human plasma kallikrein (read-out: IC50 Plasma kallikrein), on Rec. human uPA (read-out: IC50 uPA) and on Rec. human tPA (read-out: IC50 tPA) was > 5 µM each time. The “EC2× (concentration required to double the clotting time)” value in [1] is given as 702 nM. Besides, the “clotting time compared to control, PT assay” value in [2] was “No significant differences in clotting time compared to control assays”. For the same molecule, the “cytotoxicity to HUVECs” value in data set [3] is listed as “not toxic”.

In general, Kd refers to the equilibrium constant for the complex coming apart. By Ki is commonly meant the equilibrium dissociation constant of an inhibitor or competing ligand from its target. As a reminder, the inhibition is how much of the control response was suppressed. A word on the IC50: it is the concentration that gives 50% inhibition.
